The subject of one assay is HIV-1IIIB. As to the kind of experiment: HIV-1 antiviral assay in CEM-SS cells (MTS readout).
In a further assay the test system is HCMV strain AD169. Nature of the assay: HCMV plaque formation assay in MRC-5 cells. To be noted: for inhibition of HCMV plaque formation as compared to the virus control experiment: 10 micrograms per ml, 7-10 days.
Assay [1] relates to Primary Human endothelial cells (HUVEC). As to the kind of experiment: Endothelial cell migration assay. To be noted: 10 micrograms per ml, 22 hours.
Protocol: Primary Human endothelial cells (HUVEC) were seeded in insert chambers with 3 micrometer pore size of multi-transwell plate for 6 hours at 37° C. in Endothelial Cell Basal Medium (EBM) supplemented with 0.1% bovine serum albumin. Thereafter, designated concentration of testing peptides—10 micrograms per ml—was added in duplicate wells. The endothelia were allowed to migrate for 22 hours at 37° C., then, migrated cells were fixed and stained with Hoechst 33342 dye. Images of 3 fields per insert were taken and the number of migrated cells per field were quantified using the ImageProPlus software. Data were analyzed for the average number of the migrated cells and standard deviation of six data points for each treatment condition. […] Statistic p values were computed using the Student's t-test.
The test system of assay [2] is hepatitis B virus (HBV) ayw strain. As to the kind of experiment: HBV experimental assay system (HepG2-2.2.15, TaqMan PCR of secreted HBV DNA). It counts as cell-based. Particulars: 10 micrograms per ml, six days. (In general: Real-time PCR tracks product formation cycle by cycle.)
Another assay relates to IL-2 spleen cells. Nature of the assay: Th1/Th2 cytokine profiling assay: IL-2. Particulars: 10 micrograms per ml; Ovalbumin restimulation; 72 hours. It is filed as cell-based, Balb/c mice. The text has this:
(§1) The Balb/c mice (originated in 1923, it is a popular strain and is used in many different research disciplines. Also classified as an inbred from the production of 20 or more successive brother-sister matings, the Balb/c mouse is albino and small in size) were immunized on Days 1, 15, and 29 with Ovalbumin (Ovalbumin is the main protein found in egg white, commonly used to stimulate an immunological reaction in test animals) in PBS (5 micrograms/injection). On day 50, spleens of the mice were harvested (3 weeks after last boost with Ovalbumin). […] Thereafter, additional Ovalbumin was added to the cells at 10 micrograms/ml for in vitro restimulation of the cells. 72 hours later, cell supernatants were harvested and assayed using the Becton Dickinson Mouse Th1/Th2 Cytokine CBA Kit. This kit can be used to measure Interleukin-2 (IL-2), Interleukin-4 (IL-4),
(§2) Interleukin-5 (IL-5), Interferon-γ (IFN-γ), and Tumor Necrosis Factor-α (TNF-α) protein levels in a single sample. The kit performance has been optimized for analysis of physiologically relevant concentrations (pg/ml levels) of specific cytokine proteins in tissue culture supernatants and serum samples.

In another assay the test system is IFNγ spleen cells. Nature of the assay: Th1/Th2 cytokine profiling assay: IFNγ. To be noted: 10 micrograms per ml; Ovalbumin restimulation; 72 hours. It counts as cell-based, Balb/c mice.
Excerpt: as §1, §2

Another assay has as its system IL-4 spleen cells. As to the kind of experiment: Th1/Th2 cytokine profiling assay: IL-4. It counts as cell-based, Balb/c mice. To be noted: 10 micrograms per ml; Ovalbumin restimulation; 72 hours.
Excerpt: as §1, §2

In a further assay the test system is TNF-a spleen cells. Nature of the assay: Th1/Th2 cytokine profiling assay: TNF-a. It counts as cell-based, Balb/c mice. Particulars: 10 micrograms per ml; Ovalbumin restimulation; 72 hours.
Excerpt: as §1, §2

The test system of the next assay is HUVEC. Nature of the assay: Endothelial tube formation assay. To be noted: 10 micrograms per ml, 20 hours, combination peptide 1:peptide 2 0.95 mole:1.05 mole.
A further assay has as its system IL-5 spleen cells. As to the kind of experiment: Th1/Th2 cytokine profiling assay: IL-5. It counts as cell-based, Balb/c mice. To be noted: 10 micrograms per ml; Ovalbumin restimulation; 72 hours.
Excerpt: as §1, §2

Take `CC(C)(C)NC(=O)[C@@H]1CN(Cc2cccnc2)CCN1C[C@@H](O)C[C@@H](Cc1ccccc1)C(=O)N[C@H]1c2ccccc2C[C@H]1O` [indinavir]: the “antiviral activity of positive control compounds (HIV-1)” value in the assay with HIV-1IIIB was “expected levels of antiviral activity”.
Same read-out and setting: in the case of `Cc1cn([C@H]2C[C@H](N=[N+]=[N-])[C@@H](CO)O2)c(=O)[nH]c1=O` [AZT] it was “expected levels of antiviral activity”.
Regarding `Nc1nc(O)c2ncn(COC(CO)CO)c2n1` [Ganciclovir, reference compound], the “antiviral activity of positive control compound (HCMV)” value in the assay on HCMV strain AD169 (positive control) is “expected levels of antiviral activity”.
In the case of “Gly-Pen-Gly-Arg-Gly-Asp-Ser-Pro-Cys-Ala-OH [peptide 2]”, in the assay with HCMV strain AD169, the “inhibition of HCMV plaque formation as compared to the virus control experiment” value is recorded as “did not inhibit”. Also, the “inhibition of the migration of human endothelial cells” value in assay [1] is on record as 51%. Further, the “inhibition of HBV replication as compared to the virus control infection” value in assay [2] was found to be 23.9%. In the assay with IL-2 spleen cells, the “IL-2 spleen cells (% of control)” value is listed as 110.7 % of control. Also, the “IFNγ spleen cells; TH1 response (% of control)” value in the assay on IFNγ spleen cells is given as 77.3 % of control. Further, in the assay with IL-4 spleen cells, the “IL-4 spleen cells; TH2 response (% of control)” value is recorded as 117.2 % of control. The “TNF-a spleen cells; TH1 response (% of control)” value in the assay with TNF-a spleen cells was 117.6 % of control. In the assay with HUVEC, the “inhibition of the tube formation of endothelial cells” value came out at 22%. Further, the “IL-5 spleen cells; TH2 response (% of control)” value with IL-5 spleen cells is listed as 55.0 % of control.
Consider “Pyr-Gly-Pro-Trp-Leu-Glu-Glu-Glu-Glu-Glu-Ala-Tyr-Gly-Trp-Met-Asp-Phe-NH2 [peptide 1]”, for which the “inhibition of HCMV plaque formation as compared to the virus control experiment” value in the assay on HCMV strain AD169 is reported as “did not inhibit”. Besides, in assay [1], the “inhibition of the migration of human endothelial cells” value came to 30%. Also, the “inhibition of HBV replication as compared to the virus control infection” value in assay [2] is 17.4%. Further, the “IL-2 spleen cells (% of control)” value in the assay with IL-2 spleen cells is recorded as 101.6 % of control. For the same compound, the “IFNγ spleen cells; TH1 response (% of control)” value with IFNγ spleen cells is listed as 52.4 % of control. Also, the “IL-4 spleen cells; TH2 response (% of control)” value in the assay on IL-4 spleen cells is 61.5 % of control. Besides, in the assay with TNF-a spleen cells, the “TNF-a spleen cells; TH1 response (% of control)” value is listed as 106.3 % of control. In addition, the “inhibition of the tube formation of endothelial cells” value with HUVEC amounted to 35%. In addition, the “IL-5 spleen cells; TH2 response (% of control)” value in the assay on IL-5 spleen cells is given as 61.2 % of control.

Values taken from patent publication US20100210554A1, “THERAPEUTIC USES OF GASTRIN- 1 AND G- PEN-GRGDSPCA” (priority 2007, published 2010).
